Source: patent US11958812B2, “3, 5-disubstituted pyridine and 3, 5-disubstituted pyridazine derivatives and pharmaceutical use of same” (MITSUBISHI TANABE PHARMA CORPORATION, priority 2018, dated 2024)

Legend:
human recombinant ATX = human recombinant ATX (Homo sapiens, UniProt Q13822); assay: Enzyme inhibition test (choline release from LPC, Amplex UltraRed fluorescence); format: biochemical; conditions: 200 μM LPC substrate, 1 hr at room temperature, read-out: Experimental Example 1 human ATX IC50
In short: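 Recombinant human ATX (enzyme solution 0.4 ng/µL) acted on a mix of 200 µM LPC, Amplex UltraRed, peroxidase and choline oxidase in Tris pH 8.0 buffer with BSA and 0.0025% Triton X-100, 1 h at room temperature. Choline was read by fluorescence (Ex 525/Em 598 nm) against a choline chloride standard. IC50 came from % inhibition relative to enzyme-free and inhibitor-free controls.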

ATX activity in plasma [1] = biological target: T1, ATX activity in plasma (Rattus norvegicus, UniProt Q64610); assay: Measurement of ATX activity in plasma (ex vivo), rat single administration test; design: species or system male Wistar rat
T1 construct: from tissue; host or cells: plasma of male Wistar rats after oral dosing
Protocol: [Measurement of ATX Activity in Plasma (Ex Vivo)]
A compound administration solution prepared by wet pulverization in a mixer mill (type: MM400) for 10 min and adjusting to a given concentration with 0.5% aqueous carboxymethylcellulose solution was orally administered to male Wistar rat (5-week-old when used) at 5 mL/kg. Blood samples were collected from the cervical vein over time at 8 to 24 hr after administration. The blood was heparin-treated using a micro blood collection tube Capiject (CJ-AL, TERUMO CORPORATION), and the plasma was separated by centrifugation (4° C., 12,000 rpm, for 2 min), and preserved at −80° C. The rats after blood sampling were euthanized by exsanguination from the caudal vena cava under isoflurane inhalation anesthesia. The measurement of ATX activity in plasma was evaluated using the concentration of choline in the plasma, which was liberated from lysophosphatidylcholine (substrate of ATX) by the lysophospholipase D activity of ATX, as an index. An equal amount of 2× assay buffer (200 mM Tris-HCl pH9.0, 10 mM MgCl2, 1 M NaCl, 0.1% Triton X-100) is added to plasma (12 μL) and reacted at 37° C. for 6 hr. The reaction mixture (10 μL) after reaction for 6 hr and 45 μL of reagent R^1 solution (100 mM Tris-HCl pH 8.0, 0.5 mM TOOS, 10 U/mL peroxidase, 0.01% Triton X-100) were added and blended and absorbance at 550-700 nm was measured and used as a prevalue. As the standard, choline chloride was used. 1 mM choline chloride was diluted with 2× assay buffer up to 7 steps in 2-fold serial dilution, R^1 solution was treated similarly and the absorbance was measured. Furthermore, 15 μL of reagent R^2 solution (100 mM Tris-HCl pH 8.0, 1 mM 4-aminoantipyrine, 10 U/mL choline oxidase, 0.01% Triton X-100) was added, and the mixture was reacted at room temperature for 10 min, and absorbance at 550-700 nm was measured. The choline concentration per reaction time was calculated from the difference between the absorbance after R^2 solution addition and prevalue measured before R^2 addition and used as ATX activity value. inhibitory activity (%)=100×{1−[choline concentration (μM) of test substance administration group/choline concentration (μM) of solvent control group]} <calculating formula>

ATX activity in plasma [2] = biological target: T2, ATX activity in plasma (Mus musculus, UniProt Q9R1E6); assay: ATX activity in plasma in the mouse bleomycin-induced lung fibrosis model; format: in vivo, female C57BL/6J mouse; conditions: 30 mg/kg, bid, oral, 14 days; FIG. 5
T2 construct: from tissue; host or cells: plasma of female C57BL/6J mice (bleomycin-induced lung fibrosis model)
Protocol: A compound administration solution prepared by wet pulverization in a mixer mill (type: MM400) for 10 min and adjusting to a given concentration with 0.5% aqueous carboxymethylcellulose solution was orally administered to male Wistar rat (5-week-old when used) at 5 mL/kg. Blood samples were collected from the cervical vein over time at 8 to 24 hr after administration. The blood was heparin-treated using a micro blood collection tube Capiject (CJ-AL, TERUMO CORPORATION), and the plasma was separated by centrifugation (4° C., 12,000 rpm, for 2 min), and preserved at −80° C. […] The measurement of ATX activity in plasma was evaluated using the concentration of choline in the plasma, which was liberated from lysophosphatidylcholine (substrate of ATX) by the lysophospholipase D activity of ATX, as an index. […] The reaction mixture (10 μL) after reaction for 6 hr and 45 μL of reagent R^1 solution (100 mM Tris-HCl pH 8.0, 0.5 mM TOOS, 10 U/mL peroxidase, 0.01% Triton X-100) were added and blended and absorbance at 550-700 nm was measured and used as a prevalue. […] 1 mM choline chloride was diluted with 2× assay buffer up to 7 steps in 2-fold serial dilution, R^1 solution was treated similarly and the absorbance was measured. […]
At 14 days from the bleomycin administration, plasma, BALF and lung tissue were collected. BALF was recovered and the concentration of LPA (18:2) in BALF (FIG. 6) was measured. […]

For `COc1ccc(-c2cnnc(OC[C@H]3CC[C@H](C(F)(F)F)CC3)c2)nc1[C@H]1C[C@@H]1C(=O)O` [Example 5, (1S,2S)-2-[3-methoxy-6-(6-{[trans-4-(trifluoromethyl)cyclohexyl]methoxy}pyridazin-4-yl)pyridin-2-yl]cyclopropanecarboxylic Acid], which IC50 (human recombinant ATX) is on record?
The IC50 was 1 nM.

And the “Experimental Example 2 Rat single administration test (inhibitory activity (%) 8 hr after 1 mg/kg oral administration)” value (ATX activity in plasma [1])?
Its value is 92%.

And the “ATX activity in the plasma” value (ATX activity in plasma [2])?
Its value is “suppressed ATX activity in the plasma completely”.
